The values that follow come from US20060135773A1, “Trisubstituted nitrogen modulators of tyrosine phosphatases” (priority 2004, published 2006).

One may read the IC50 as the point on the concentration scale where inhibition reaches its midpoint.

In this test the target is T1, PTP-1B (Homo sapiens, UniProt P18031).
T1 construct: PTP-1B (purified, 1 mg/mL) as a 1:250 dilution
T1 sequence (P18031 1-321 limits assumed): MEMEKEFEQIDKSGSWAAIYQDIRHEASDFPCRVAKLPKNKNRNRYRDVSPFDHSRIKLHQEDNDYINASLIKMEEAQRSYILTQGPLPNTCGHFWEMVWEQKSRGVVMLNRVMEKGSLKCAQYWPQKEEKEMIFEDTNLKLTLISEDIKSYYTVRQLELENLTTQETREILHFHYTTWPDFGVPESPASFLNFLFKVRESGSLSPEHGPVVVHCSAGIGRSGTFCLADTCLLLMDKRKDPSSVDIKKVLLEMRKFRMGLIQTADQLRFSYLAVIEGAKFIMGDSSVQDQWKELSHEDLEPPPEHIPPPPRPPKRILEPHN
Put plainly: pNPP tyrosine phosphatase inhibition assay, PTP-1B. The class given is biochemical. As to conditions: pNPP assay, PTP-1B; read-out: Activity Class (IC50 ranges). An outline of the steps: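 Test compounds were screened at two final levels, 31.3 and 10 µM, against 4 µg/mL purified PTP-1B. The substrate was 10 mM p-nitrophenyl phosphate, with incubation for 10 min at 30°C before a K2CO3 quench. Activity was taken from A405.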
`O=P(O)(O)C(F)(F)c1ccc(CN(Cc2ccc(C(F)(F)P(=O)(O)O)cc2)S(=O)(=O)c2ccc(Oc3ccccc3)cc2)cc1` [Compound 70, [(4-{[[4-(Difluoro-phosphono-methyl)-benzyl]-(4-phenoxy-benzenesulfonyl)-amino]-methyl}-phenyl)-difluoro-methyl]-phosphonic acid]: the IC50 was in the range of 250 to 499 nM.

For the compound “{[4-(difluorophosphonomethyl)-3-chlorophenyl]methyl}[(2-methoxyphenyl)sulfonyl]{[2-(4-methylphenyl)phenyl]methyl}amine [Compound 198]”, the IC50 was under 99 nM.

Consider `COc1ccccc1S(=O)(=O)N(Cc1ccc(-c2cccc(S(C)(=O)=O)c2)cc1)Cc1ccc(C(F)(F)P(=O)(O)O)c(Cl)c1` [Compound 148, [(2-Chloro-4-{[(3′-methanesulfonyl-biphenyl-4-ylmethyl)-(2-methoxy-benzenesulfonyl)-amino]-methyl}-phenyl)-difluoro-methyl]-phosphonic acid], for which the IC50 lay within 100 to 249 nM.

For “[(4-{[(3′-Carbamoyl-biphenyl-2-ylmethyl)-(2-methoxy-benzenesulfonyl)-amino]-methyl}-2-chloro-phenyl)-difluoro-methyl]-phosphonic acid [Compound 187]”, the IC50 is under 99 nM.

Turning to `COc1ccccc1S(=O)(=O)N(Cc1ccc(-c2ccc(Cc3nn[nH]n3)cc2)cc1)Cc1ccc(C(F)(F)P(=O)(O)O)c(Cl)c1` [Compound 153, {[2-Chloro-4-({(2-methoxy-benzenesulfonyl)-[4′-(2H-tetrazol-5-ylmethyl)-biphenyl-4-ylmethyl]-amino}-methyl)-phenyl]-difluoro-methyl}-phosphonic acid], the IC50 was 100 to 249 nM.

With `O=P(O)(O)C(F)(F)c1ccc(CN(Cc2ccc(-c3cccc(-c4nn[nH]n4)c3)cc2)S(=O)(=O)c2ccc(F)cc2Cl)cc1Cl` [Compound 169, {[2-Chloro-4-({(2-chloro-4-fluoro-benzenesulfonyl)-[3′-(2H-tetrazol-5-yl)-biphenyl-4-ylmethyl]-amino}-methyl)-phenyl]-difluoro-methyl}-phosphonic acid], the IC50 was under 99 nM.

“{[4-(difluorophosphonomethyl)-3-chlorophenyl]methyl}{[2-(3-ethylphenyl)phenyl]methyl}[(2-methoxyphenyl)sulfonyl]amine [Compound 196]”: the IC50 is 100 to 249 nM.

Take “{[4-(difluorophosphonomethyl)-3-chlorophenyl]methyl}(cyclohexylmethyl)[(2-methoxyphenyl)sulfonyl]amine [Compound 203]”: the IC50 was 250 to 499 nM.

Regarding `COc1ccccc1S(=O)(=O)N(Cc1ccc(S(C)(=O)=O)cc1)Cc1ccc(C(F)(F)P(=O)(O)O)c(Cl)c1` [Compound 137, [(2-Chloro-4-{[(4-methanesulfonyl-benzyl)-(2-methoxy-benzenesulfonyl)-amino]-methyl}-phenyl)-difluoro-methyl]-phosphonic acid], the IC50 lay within 250 to 499 nM.

In the case of `COc1ccccc1S(=O)(=O)N(Cc1ccc(C#N)cc1)Cc1ccc(NC(=O)C(=O)O)cc1` [Compound 118, N-(4-(N-oxalylamino]benzyl)-N-(4-cyanobenzyl)-(2-methoxy)benzenesulfonamide], the IC50 is over 25000 nM.

With `COc1ccccc1S(=O)(=O)N(Cc1ccc(OCC(=O)O)c(C(=O)O)c1)Cc1ccccc1-c1ccccc1` [Compound 224, 5-{[Biphenyl-2-ylmethyl-(2-methoxy-benzenesulfonyl)-amino]-methyl}-2-carboxymethoxy-benzoic acid], the IC50 is over 25000 nM.

Consider `COc1ccccc1S(=O)(=O)N(Cc1ccc(-c2cccc(C(=O)O)c2)cc1)Cc1ccc(C(F)(F)P(=O)(O)O)c(Cl)c1` [Compound 149, 4′-{[[3-Chloro-4-(difluoro-phosphono-methyl)-benzyl]-(2-methoxy-benzenesulfonyl)-amino]-methyl}-biphenyl-3-carboxylic acid], for which the IC50 is under 99 nM.

With “{[4-(difluorophosphonomethyl)-3-chlorophenyl]methyl}[(2-ethoxyphenyl)methyl][(2-methoxyphenyl)sulfonyl]amine [Compound 212]”, the IC50 lay in the range of 250 to 499 nM.

For `O=P(O)(O)C(F)(F)c1ccc(CN(Cc2ccc(C(F)(F)P(=O)(O)O)cc2)S(=O)(=O)c2ccccc2F)cc1` [Compound 83, [(4-{[[4-(Difluoro-phosphono-methyl)-benzyl]-(2-fluoro-benzenesulfonyl)-amino]-methyl}-phenyl)-difluoro-methyl]-phosphonic acid], the IC50 lay within 250 to 499 nM.

For the compound `COc1ccccc1S(=O)(=O)N(Cc1ccc(-c2cccc(C#N)c2)cc1)Cc1ccc(C(F)(F)P(=O)(O)OCOC(=O)C(C)(C)C)c(Cl)c1` [Compound 227, 2,2-Dimethyl-propionic acid [(2-chloro-4-{[(3′-cyano-biphenyl-4-ylmethyl)-(2-methoxy-benzenesulfonyl)-amino]-methyl}-phenyl)-difluoro-methyl]-hydroxy-phosphinoyloxymethyl ester], the IC50 was over 25000 nM.

For the compound “{[4-(difluorophosphonomethyl)-3-chlorophenyl]methyl}[(2-(2,3-dihydrobenzo[b]furan-5-yl)phenyl)methyl][(2-methoxyphenyl)sulfonyl]amine [Compound 204]”, the IC50 is under 99 nM.

Consider `COc1ccccc1S(=O)(=O)N(CCc1ccc(-c2cccc(C(=O)O)c2)cc1)Cc1ccc(C(F)(F)P(=O)(O)O)c(Cl)c1` [Compound 188, 4′-{2-[[3-Chloro-4-(difluoro-phosphono-methyl)-benzyl]-(2-methoxy-benzenesulfonyl)-amino]-ethyl}-biphenyl-3-carboxylic acid], for which the IC50 was in the range of 250 to 499 nM.

“2,2-Dimethyl-propionic acid [(2-bromo-4-{[(4-methanesulfonyl-phenyl)-(2-methoxy-benzenesulfonyl)-amino]-methyl}-phenyl)-difluoro-methyl]-hydroxy-phosphinoyloxymethyl ester [Compound 228]”: the IC50 lay within 2500 to 25000 nM.

Consider `O=P(O)(O)C(F)(F)c1ccc(CN(Cc2ccc(C(F)(F)P(=O)(O)O)cc2)S(=O)(=O)c2ccc(-c3ccccc3)cc2)cc1` [Compound 66, {[4-({(Biphenyl-4-sulfonyl)-[4-(difluoro-phosphono-methyl)-benzyl]-amino}-methyl)-phenyl]-difluoro-methyl}-phosphonic acid], for which the IC50 was in the range of 250 to 499 nM.

In the case of `COc1ccccc1S(=O)(=O)N(Cc1ccc(OCc2ccccc2)cc1)Cc1ccc(C(F)(F)P(=O)(O)O)c(Cl)c1` [Compound 172, [(4-{[(4-Benzyloxy-benzyl)-(2-methoxy-benzenesulfonyl)-amino]-methyl}-2-chloro-phenyl)-difluoro-methyl]-phosphonic acid], the IC50 lay in the range of 250 to 499 nM.

`COc1ccccc1S(=O)(=O)N(Cc1ccc(Cl)c(Cl)c1)Cc1ccc(C(F)(F)P(=O)(O)O)c(Br)c1` [Compound 101, [(2-Bromo-4-{[(3,4-dichloro-benzyl)-(2-methoxy-benzenesulfonyl)-amino]-methyl}-phenyl)-difluoro-methyl]-phosphonic acid]: the IC50 was 100 to 249 nM.

For the compound `COc1ccccc1S(=O)(=O)N(Cc1ccc(-c2cccc(C#N)c2)cc1)Cc1ccc(C(F)(F)P(=O)(O)OC)c(Cl)c1` [Compound 165, [(2-Chloro-4-{[(3′-cyano-biphenyl-4-ylmethyl)-(2-methoxy-benzenesulfonyl)-amino]-methyl}-phenyl)-difluoro-methyl]-phosphonic acid monomethyl ester], the IC50 is 2500 to 25000 nM.

`O=C(O)c1ccc(CN(Cc2ccc(C(=O)O)cc2)S(=O)(=O)c2ccccc2)cc1` [Compound 78, 4-([Benzenesulfonyl-(4-carboxybenzyl)-amino]-methyl)-benzoic acid]: the IC50 was over 25000 nM.

On to `COc1ccccc1S(=O)(=O)N(Cc1ccc(C#N)cc1)Cc1ccc(CC(C(=O)O)C(=O)O)cc1` [Compound 140, 2-(4-{[(4-Cyano-benzyl)-(2-methoxy-benzenesulfonyl)-amino]-methyl}-benzyl)-malonic acid], for which the IC50 is over 25000 nM.

Consider `O=P(O)(O)C(F)(F)c1ccc(CN(Cc2ccc(Cl)c(Cl)c2)S(=O)(=O)c2ccccn2)cc1Br` [Compound 100, [(2-Bromo-4-{[(3,4-dichloro-benzyl)-(pyridine-2-sulfonyl)-amino]-methyl}-phenyl)-difluoro-methyl]-phosphonic acid], for which the IC50 is 250 to 499 nM.

Consider `N#Cc1ccccc1S(=O)(=O)N(Cc1ccc(Cl)c(Cl)c1)Cc1ccc(C(F)(F)P(=O)(O)O)c(Br)c1` [Compound 97, [(2-Bromo-4-{[(3,4-dichloro-benzyl)-(2-cyanobenzenesulfonyl)-amino]-methyl}-phenyl)-difluoro-methyl]-phosphonic acid], for which the IC50 was 250 to 499 nM.

Regarding “[(2-Chloro-4-{[(4′-cyano-biphenyl-4-ylmethyl)-(2-methoxy-benzenesulfonyl)-amino]-methyl}-phenyl)-difluoro-methyl]-phosphonic acid [Compound 157]”, the IC50 was 100 to 249 nM.

On to “{[4-(difluorophosphonomethyl)-3-chlorophenyl]methyl}{[2-(4-methoxyphenyl)phenyl]methyl}[(2-methoxyphenyl)sulfonyl]amine [Compound 190]”, for which the IC50 was under 99 nM.

In the case of `COc1ccccc1S(=O)(=O)N(Cc1ccc(-c2cccc(-c3nn[nH]n3)c2)cc1)Cc1ccc(C(F)(F)P(=O)(O)O)c(Cl)c1` [Compound 47, {[2-Chloro-4-({(2-methoxy-benzenesulfonyl)-[3′-(2H-tetrazol-5-yl)-biphenyl-4-ylmethyl]-amino}-methyl)-phenyl]-difluoro-methyl}-phosphonic acid], the IC50 was under 99 nM.
